What follows are compounds tested against T1, SARS2 protease (Severe acute respiratory syndrome coronavirus 2, UniProt P0DTD1) (assay: SARS-CoV-2 protease inhibition assay (SARS2 FRET protease assay)). Details: IC50 (μM), SARS2 protease 30 nM, peptide substrate 1.3 μM, 120 minutes at 37° C., compounds 20 μM to 0.075 nM.
T1 construct: SARS2 protease was added to a final concentration of 30 nM
Assay type: biochemical
`CCCC[C@H](NC(=O)O[C@H](c1ccccc1)C(F)(F)c1cccc(F)c1)C(=O)N[C@@H](C[C@@H]1CCNC1=O)C(=O)C(=O)NCC` [Compound A284, (R)-2,2-difluoro-2-(3-fluorophenyl)-1-phenylethyl ((S)-1-(((S)-4-(ethylamino)-3,4-dioxo-1-((S)-2-oxopyrrolidin-3-yl)butan-2-yl)amino)-1-oxohexan-2-yl)carbamate] gave an IC50 of 0.008 µM. For `CCCC[C@H](NC(=O)OC(c1ccccc1)C(F)(F)c1cccc(Cl)c1)C(=O)N[C@@H](Cc1ccc[nH]c1=O)C(=O)C(=O)NC1CC1` (stereo partly drawn) [Compound A285, 2-(3-chlorophenyl)-2,2-difluoro-1-phenylethyl ((S)-1-(((S)-4-(cyclopropylamino)-3,4-dioxo-1-(2-oxo-1,2-dihydropyridin-3-yl)butan-2-yl)amino)-1-oxohexan-2-yl)carbamate], the IC50 was 1.3 µM. `O=C[C@H](C[C@@H]1CCNC1=O)NC(=O)[C@H](Cc1cccc(Cl)c1)NC(=O)OC(c1ccccc1)C(F)(F)c1cccc(Cl)c1` (some centres unmarked) [Compound A286] gave an IC50 of 0.0001 µM. `CCNC(=O)C(=O)[C@H](C[C@@H]1CCNC1=O)NC(=O)[C@H](Cc1cccc(Cl)c1)NC(=O)OC(c1ccccc1)C(F)(F)c1cccc(Cl)c1` (some centres unmarked) [Compound A287] gave an IC50 of 1.06 µM. Work on `CC(C)C[C@H](NC(=O)O[C@@H](c1ccccc1)C(F)(F)c1cccc(C2CC2)c1)C(=O)N[C@@H](C[C@@H]1CCNC1=O)C(=O)C(=O)NC1CC1` [Compound A288] yielded an IC50 of 0.26 µM. `CCCC[C@H](NC(=O)OC(c1ccccc1)C(F)(F)c1cccc(Cl)c1)C(=O)N[C@H](C=O)Cc1ccc[nH]c1=O` (stereo partly drawn) [Compound A292, 2-(3-chlorophenyl)-2,2-difluoro-1-phenylethyl ((S)-1-oxo-1-(((S)-1-oxo-3-(2-oxo-1,2-dihydropyridin-3-yl)propan-2-yl)amino)hexan-2-yl)carbamate] showed an IC50 of 0.159 µM. With `CCOP(=O)(OCC)C(O)[C@H](C[C@@H]1CCNC1=O)NC(=O)[C@H](CC1CCCCC1)NC(=O)O[C@H](c1ccccc1)C(F)(F)c1cccc(Cl)c1` (some centres unmarked) [Compound A293] the IC50 was 16.1 µM. `CCCC[C@H](NC(=O)OC(c1ccccc1)C(F)(F)c1cccc(Cl)c1)C(=O)N[C@@H](C[C@@H]1CCNC1=O)C(=O)C(=O)NCCNCC` (some centres unmarked) [Compound A294] showed an IC50 of 0.486 µM. Work on `CCCC[C@H](NC(=O)O[C@@H](c1cccnc1)C(F)(F)c1cccc(Cl)c1)C(=O)N[C@@H](C[C@@H]1CCNC1=O)C(=O)C(=O)NC1CC1` [Compound A301] yielded an IC50 of 0.0362 µM. Work on `CCCC[C@H](NC(=O)O[C@@H](c1ccncc1)C(F)(F)c1cccc(Cl)c1)C(=O)N[C@@H](C[C@@H]1CCNC1=O)C(=O)C(=O)NC1CC1` [Compound A303] yielded an IC50 of 0.055 µM. `CCCC[C@H](NC(=O)OC(c1ccn(C)n1)C(F)(F)c1cccc(Cl)c1)C(=O)N[C@H](C=O)C[C@@H]1CCNC1=O` (some centres unmarked) [Compound A305] gave an IC50 of 0.0004 µM. Work on `CCCC[C@H](NC(=O)OC(c1ccccc1)C(F)(F)c1cccc(Cl)c1)C(=O)NC(CN1CCNC1=O)C(=O)C(=O)NC1CC1` (some centres unmarked) [Compound A306] yielded an IC50 of 4.41 µM. With `CC(C)C[C@H](NC(=O)OC(c1ccccc1)C(F)(F)c1cccc(Cl)c1)C(=O)NC(CN1CCNC1=O)C(=O)C(=O)NC1CC1` (some centres unmarked) [Compound A307] the IC50 was 4.44 µM. Work on `CC[C@@H](C)C[C@H](NC(=O)O[C@H](c1ccccc1)C(F)(F)c1cccc(Cl)c1)C(=O)N[C@@H](C[C@@H]1CCNC1=O)C(=O)C(=O)NC1CC1` [Compound A311] yielded an IC50 of 0.181 µM. With `CC[C@@H](C)C[C@H](NC(=O)O[C@@H](c1ccccc1)C(F)(F)c1cccc(Cl)c1)C(=O)N[C@@H](C[C@@H]1CCNC1=O)C(=O)C(=O)NC1CC1` [Compound A312] the IC50 was 0.64 µM. With `CCCC[C@H](NC(=O)OC(c1ccn(C)n1)C(F)(F)c1cccc(Cl)c1)C(=O)N[C@@H](C[C@@H]1CCNC1=O)C(=O)C(=O)NCC` (some centres unmarked) [Compound A313] the IC50 was 0.139 µM. Compound `CC(C)C[C@H](NC(=O)OC(c1ccccc1)C(F)(F)c1cccc(C2CCC2)c1)C(=O)N[C@H](C=O)C[C@@H]1CCNC1=O` (some centres unmarked) [Compound A314] has an IC50 of 0.001 µM. Work on `CC(C)C[C@H](NC(=O)OC(c1ccccc1)C(F)(F)c1cccc(C2CCC2)c1)C(=O)N[C@@H](C[C@@H]1CCNC1=O)C(=O)C(=O)NC1CC1` (some centres unmarked) [Compound A315] yielded an IC50 of 0.051 µM. `CC(C)C[C@H](NC(=O)O[C@@H](c1ccccc1)C(F)(F)c1cccc(Cl)c1)C(=O)N[C@@H](C[C@@H]1CCNC1=O)C(=O)C(=O)NC1CC1` [Compound A317] showed an IC50 of 0.0004 µM. For `CCCC[C@H](NC(=O)OC(c1cnn(C)c1)C(F)(F)c1cccc(Cl)c1)C(=O)N[C@@H](C[C@@H]1CCNC1=O)C(=O)C(=O)NCC` (some centres unmarked) [Compound A319], the IC50 was 0.001 µM. Work on `CCNC(=O)C(=O)[C@H](C[C@@H]1CCNC1=O)NC(=O)[C@@H](CC1(CC)CCC1)NC(=O)O[C@@H](c1ccccc1)C(F)(F)c1cccc(Cl)c1` [Compound A320] yielded an IC50 of 0.0001 µM. With `CCNC(=O)C(=O)[C@H](C[C@@H]1CCNC1=O)NC(=O)[C@H](CC1(CC)CCC1)NC(=O)O[C@H](c1ccccc1)C(F)(F)c1cccc(Cl)c1` [Compound A322] the IC50 was 1.72 µM. `CCNC(=O)C(=O)[C@H](C[C@@H]1CCNC1=O)NC(=O)[C@H](CC1(CC)CCC1)NC(=O)O[C@@H](c1ccccc1)C(F)(F)c1cccc(Cl)c1` [Compound A323] was tested, and the IC50 was 3.84 µM. In the case of `CCNC(=O)C(=O)[C@H](C[C@@H]1CCNC1=O)NC(=O)[C@@H](CC1(C)CCC1)NC(=O)O[C@@H](c1ccccc1)C(F)(F)c1cccc(Cl)c1` [Compound A324], the IC50 was 0.0003 µM. Compound `CCNC(=O)C(=O)[C@H](C[C@@H]1CCNC1=O)NC(=O)[C@H](CC1(C)CCC1)NC(=O)O[C@H](c1ccccc1)C(F)(F)c1cccc(Cl)c1` [Compound A326] has an IC50 of 0.367 µM. `CCNC(=O)C(=O)[C@H](C[C@@H]1CCNC1=O)NC(=O)[C@H](CC1(C)CCC1)NC(=O)O[C@@H](c1ccccc1)C(F)(F)c1cccc(Cl)c1` [Compound A327] showed an IC50 of 5.33 µM.
